We go through 11 compounds from publication PMC8541513, “Stereoselective Synthesis of the Di-Spirooxindole Analogs Based Oxindole and Cyclohexanone Moieties as Potential Anticancer Agents” (Molecules, 2021).

Molecules are shown by their SMILES. Where two headings read alike, the source gives them in different places.

For one series, the system named is Breast MCF-7. In words: MTT anticancer assay, breast MCF-7 cells. Type of series: cell-based. To be noted: Homo sapiens, MCF7, 48 h, 1-30 µM, ± SD of three independent experiments. The procedure: (§1) The antiproliferative activity against four cancer cell lines, including prostate PC3, cervical HeLa, and triple-negative breast cancer (MCF-7 and MDA-MB231) was evaluated by MTT assay, while standard drug doxorubicin was used as a reference for comparison (Table 1).
(§2) Cytotoxicity against BJ human fibroblast cells and cytotoxicity against PC3, HeLa, MCF-7, and MDA-MB231 cancer cell lines were evaluated by following the procedure as described in the literature (Supplementary Materials). […]
(§3) The Biological Activity Assays Protocols
(§4) Cytotoxic activity of compounds was evaluated in 96-well flat-bottomed micro plates by using the standard MTT (3-[4, 5-dimethylthiazole-2-yl]-2, 5-diphenyl-tetrazolium bromide) colorimetric assay.
(§5) For this purpose, PC3 cells (Prostate Cancer) / BJ Human fibroblast cells / HeLa cells (Cervical Cancer) / MCF-7 and MDA-MB-231 breast cancer cell line were cultured in Dulbecco’s Modified Eagle Medium, supplemented with 5% of fetal bovine serum (FBS), 100 IU/ml of penicillin and 100 µg/ml of streptomycin in 75 cm2 flasks, and kept in 5% CO2 incubator at 37 °C. Exponentially growing cells were harvested, counted with haemocytometer and diluted with a particular medium. Cell culture with the concentration of 1x10^5 cells/ml was prepared and introduced (100 µL/well) into 96-well plates. After overnight incubation, medium was removed and 200 µL of fresh medium was added with different concentrations of compounds (1-30µM). After 48 hrs, 200 µL MTT (0.5 mg/ml) was added to each well and incubated further for 4 hrs. Subsequently, 100µL of DMSO was added to each well. The extent of MTT reduction to formazan within cells was calculated by measuring the absorbance at 570 nm, using a micro plate reader (Spectra Max plus, Molecular Devices, CA, USA). The cytotoxicity was recorded […]
(§6) (1 picture or pasted object on this page, not shown here) […]
(§7) as concentration causing 50% growth inhibition (IC50) for PC3 cells. The percent inhibition was calculated by using the following formula:
(§8) % inhibition = 100-((mean of O.D of test compound – mean of O.D of negative control)/ (mean of O.D of positive control – mean of O.D of negative control)*100).
(§9) The results (% inhibition) were processed by using Soft- Max Pro software (Molecular Device, USA).
(§10) Standard drug used in the MTT assay was doxorubicin. […]
On the technique in general: Tetrazolium dyes change colour on reduction, which living cells bring about.

Another series concerns Human Fibroblast BJ. In words: MTT cytotoxicity assay against BJ human fibroblast cells. The series is classed as cell-based. The following applies: 48 h, 1-30 µM, ± SD of three independent experiments. The procedure: as §2, §3, §4, §5, §6, §7, §8, §9, §10
Another series deals with Breast MDA-MB231. In words: MTT anticancer assay, breast MDA-MB231 cells. Type of series: cell-based. The following applies: Homo sapiens, MDA-MB-231, 48 h, 1-30 µM, ± SD of three independent experiments. As to the method:
as §1, §2, §3, §4, §5, §6, §7, §8, §9, §10

In a further series the test system is Cervical HeLa. In words: MTT anticancer assay, cervical HeLa cells. The series is classed as cell-based. The following applies: 48 h, 1-30 µM, ± SD of three independent experiments; for IC50: Homo sapiens, HeLa. The procedure: as §1, §2, §3, §4, §5, §6, §7, §8, §9, §10
The next series concerns Prostate PC3. In words: MTT anticancer assay, prostate PC3 cells. The following applies: Homo sapiens, PC-3, 48 h, 1-30 µM, ± SD of three independent experiments. Type of series: cell-based. As to the method: as §1, §2, §3, §4, §5, §6, §7, §8, §9, §10
The subject of series [1] is MCF-7 breast cancer cells. Also on record: method as in PMID 28126436, PMID 29413708. The following applies: cited from earlier work.
The test system of another series is HeLa cancer cell line. Set-up: method as in doi:10.1016/j.molstruc.2019.03.032. The following applies: cited from earlier work.
The test system of another series is HeLa cancer cells. Set-up: method as in PMID 30844686. The following applies: cited from earlier work.
Series [2] relates to K562 leukemia cancer cells. Also on record: method as in PMID 28126436, PMID 29413708. The following applies: cited from earlier work.
In the next series the test system is HCT-116. Also on record: method as in PMID 30802707. The following applies: cited from earlier work.
Series [3] deals with HepG2. Also on record: method as in PMID 30802707. To be noted: cited from earlier work.
Another series deals with PC-3. Also on record: method as in PMID 30802707. The following applies: cited from earlier work.
Series [4] has as its system HepG2. Also on record: method as in Barakat et al. (15). To be noted: ref Barakat et al. (15); cited from earlier work.

As for `O=C1/C(=C/c2ccc(F)cc2)CCC[C@@]12[C@H](c1ccc(F)cc1)[C@H]1C[C@@H]3CCCC[C@@H]3N1[C@]21C(=O)Nc2cc(Cl)ccc21` [Compound 4l, (1. S,1′S,3′S,4a′S,8a′S,9a′R)-6″-Chloro-3-((E)-4-fluorobenzylidene)-1′-(4-fluorophenyl)-4a′,5′,6′,7′,8′,8a′,9′,9a′-octahydro-1′H-dispiro[cyclohexane-1,2′-pyrrolo[1,2-a]indole-3′,3″-indoline]-2,2″-dione], the melting point (in general, the temperature, or range, at which the solid turns liquid) is 96 to 97 °C. Moreover, the concentration for half-maximal inhibition (IC50) (usually the midpoint of a concentration-inhibition curve) in the series on Breast MCF-7 was > 30 µM. Moreover, the IC50 in the series on Human Fibroblast BJ was > 30 µM. Further, the half-inhibitory concentration (IC50) in the series on Breast MDA-MB231 came to 14.45 ± 0.08 µM. In the series with Cervical HeLa, this compound showed an IC50 of 7.2 ± 0.5 µM. Besides, in the series with Prostate PC3, the IC50 was > 30 µM.
For the compound `O=C1/C(=C/c2ccc(C(F)(F)F)cc2)CCC[C@@]12[C@H](c1ccc(C(F)(F)F)cc1)[C@H]1C[C@@H]3CCCC[C@@H]3N1[C@]21C(=O)Nc2cc(Cl)ccc21` [Compound 4m, (1. S,1′S,3′S,4a′S,8a′S,9a′R)-6″-Chloro-3-((E)-4-(trifluoromethyl)benzylidene)-1′-(4-(trifluoromethyl)phenyl)-4a′,5′,6′,7′,8′,8a′,9′,9a′-octahydro-1′H-dispiro[cyclohexane-1,2′-pyrrolo[1,2-a]indole-3′,3″-indoline]-2,2″-dione], the melting point was 78 to 79 °C. The 50% inhibitory concentration (IC50) in the series with Breast MCF-7 was > 30 µM. For the same compound, the IC50 with Human Fibroblast BJ was > 30 µM. In the series on Breast MDA-MB231, the IC50 was > 30 µM. In the series with Cervical HeLa, this compound gave an IC50 of 24.6 ± 0.4 µM. Further, the IC50 in the series on Prostate PC3 was > 30 µM.
As for `Cc1ccc2c(c1)[C@]1(C(=O)N2)N2[C@H](C[C@@H]3CCCC[C@@H]32)[C@@H](c2ccc(C(F)(F)F)cc2)[C@@]12CCC/C(=C\c1ccc(C(F)(F)F)cc1)C2=O` [Compound 4n, (1. S,1′S,3′S,4a′S,8a′S,9a′R)-5″-Methyl-3-((E)-4-(trifluoromethyl)benzylidene)-1′-(4-(trifluorom-thyl)phenyl)-4a′,5′,6′,7′,8′,8a′,9′,9a′-octahydro-1′H-dispiro[cyclohexane-1,2′-pyrrolo[1,2-a]indole-3′,3″-indoline]-2,2″-dione], the melting point lay within 73 to 74 °C. For the same compound, the IC50 in the series on Breast MCF-7 is > 30 µM. For the same compound, the IC50 with Human Fibroblast BJ was > 30 µM. In the series with Breast MDA-MB231, the 50% inhibitory concentration (IC50) is > 30 µM. In addition, in the series with Cervical HeLa, the “IC50, Cervical HeLa” value was “inactive” and the IC50 is > 30 µM. Also, the IC50 in the series with Prostate PC3 is > 30 µM.
Turning to `O=c1[nH]cc(F)c(=O)[nH]1` [Compound 5-FU, 5-fluorouracil], the IC50 in series [1] is 78.28 ± 0.2 µM.
Regarding `COc1cccc2c1C(=O)c1c(O)c3c(c(O)c1C2=O)C[C@@](O)(C(=O)CO)C[C@@H]3O[C@H]1C[C@H](N)[C@H](O)[C@H](C)O1` [Doxorubicin, reference compound], the IC50 was 1.2 µM with HeLa cancer cell line; 0.79 ± 0.05 µM in the series on Breast MCF-7; > 30 µM in the series with Human Fibroblast BJ; 0.32 ± 0.002 µM with Breast MDA-MB231; 0.9 ± 0.14 µM with Cervical HeLa; 1.9 ± 0.4 µM in the series with Prostate PC3.
In the case of `O=C(c1ccccn1)[C@@H]1[C@@H](c2ccccc2Cl)[C@H](c2ccccc2)N[C@@]12C(=O)Nc1ccccc12` [III], the “selectivity between HeLa cancer cells and Vero healthy cells” value in the series with HeLa cancer cells was 3 fold.
Regarding `O=C1C(=Cc2ccc(Br)cc2)CCCC12C1CCCN1C1(C(=O)Nc3ccccc31)C2c1ccc(Br)cc1` (centres unmarked) [VIII], in series [1], the 50% inhibitory concentration (IC50) is 15.32 ± 0.02 µM.
With `COc1ccc(C=C2CCCC3(C2=O)C(c2ccc(OC)cc2)C2CSCN2C32C(=O)Nc3ccccc32)cc1` (centres unmarked) [VII], in series [2], the half-maximal inhibitory concentration (IC50) was 13.4 ± 0.14 µM.
For the compound `O=C(c1ccc(F)cc1)[C@H]1[C@H](c2ccc(Cl)cc2Cl)C2CSCN2[C@]12C(=O)Nc1ccccc12` (some centres unmarked) [VI], the IC50 in the series on HeLa cancer cell line is 11.2 µM.
`O=C(/C=C/c1ccc(Cl)cc1Cl)[C@H]1[C@H](c2ccc(Cl)cc2Cl)[C@H]2CSCN2[C@]12C(=O)Nc1ccccc12` [V]: the “selectivity index for the cancer cells versus the normal cells” value with HCT-116 (HCT-116, HepG2, PC-3 versus normal cells) is reported as > 2. Moreover, the IC50 in the series with HCT-116, in the series on HepG2 [3] and with PC-3 was < 4 µM in each case.
In the case of `N.N.[Cl][Pt][Cl]` [cisplatin], the concentration for half-maximal inhibition (IC50) in the series with HepG2 [4] is 5.5 µM.
